Measurements: ChEMBL document CHEMBL1212923, “Synthesis and in vivo evaluation of phenethylpiperazine amides: selective 5-hydroxytryptamine(2A) receptor antagonists for the treatment of insomnia” (J Med Chem, 2010)
Active and inactive are the calls of the source. The calls are words filed in the database; no cut-off is given here.

Assays:
[1] = tested on: Mus musculus; test: Volume of distribution at steady state in mouse at 3 mg/kg, po; assay type: ADME, organism-based; parameters: dose 3 mg/kg, route oral; conditions: in vivo
[2] = tested on: Rattus norvegicus; test: Effect on behavioral activity in po dosed Sprague-Dawley rat assessed as increase in sleep consolidation after 5 hrs; assay type: functional, organism-based
[3] = Oral bioavailability in Sprague-Dawley rat at 3 mg/kg relative to 2 mg/kg, iv dose; assay type: ADME, organism-based; conditions: in vivo
[4] = Cmax in Sprague-Dawley rat at 10 mg/kg, po; assay type: ADME, organism-based; parameters: dose 10 mg/kg, route oral; conditions: in vivo
[5] = tested on: Canis familiaris; test: Toxicity in telemeterized dog assessed as effect on hemodynamics at 10 to 30 mg/kg; assay type: organism-based, Canis lupus familiaris; parameters: dose 10-30 mg/kg; conditions: in vivo
[6] = biological target: T1, Cytochrome P450 1A2 (Homo sapiens, UniProt P05177); test: Inhibition of CYP1A2 in human liver microsomes; assay type: ADME, Microsome
T1 sequence (P05177 whole entry): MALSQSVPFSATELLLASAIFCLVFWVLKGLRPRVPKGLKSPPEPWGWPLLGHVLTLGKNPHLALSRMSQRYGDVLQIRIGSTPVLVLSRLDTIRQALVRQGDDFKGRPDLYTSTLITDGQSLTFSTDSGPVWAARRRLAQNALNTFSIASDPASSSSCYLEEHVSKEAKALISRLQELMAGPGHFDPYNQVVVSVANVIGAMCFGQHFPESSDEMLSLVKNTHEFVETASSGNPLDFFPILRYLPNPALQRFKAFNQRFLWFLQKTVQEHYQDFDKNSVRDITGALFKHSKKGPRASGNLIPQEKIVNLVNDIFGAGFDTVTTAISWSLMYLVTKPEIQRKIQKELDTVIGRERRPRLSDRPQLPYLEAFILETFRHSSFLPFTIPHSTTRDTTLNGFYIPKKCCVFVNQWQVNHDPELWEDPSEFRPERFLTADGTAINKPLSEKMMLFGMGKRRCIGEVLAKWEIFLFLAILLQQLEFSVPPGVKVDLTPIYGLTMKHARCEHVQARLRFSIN

[7] = biological target: T2, 5-hydroxytryptamine receptor 2C (Homo sapiens, UniProt P28335); assay type: cell-based, HEK293
T2 sequence (P28335 whole entry): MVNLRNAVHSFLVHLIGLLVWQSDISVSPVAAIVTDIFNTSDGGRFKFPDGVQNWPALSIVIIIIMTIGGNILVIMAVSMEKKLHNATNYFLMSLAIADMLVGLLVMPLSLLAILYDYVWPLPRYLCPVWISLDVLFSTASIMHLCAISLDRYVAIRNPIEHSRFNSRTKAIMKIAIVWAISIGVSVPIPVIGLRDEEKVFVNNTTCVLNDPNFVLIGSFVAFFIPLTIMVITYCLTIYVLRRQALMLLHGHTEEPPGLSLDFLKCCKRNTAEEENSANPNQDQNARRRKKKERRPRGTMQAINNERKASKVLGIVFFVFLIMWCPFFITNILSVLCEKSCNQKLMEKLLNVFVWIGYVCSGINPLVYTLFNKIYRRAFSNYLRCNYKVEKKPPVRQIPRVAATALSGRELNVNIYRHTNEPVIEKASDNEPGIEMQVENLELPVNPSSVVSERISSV

[8] = biological target: Cytochrome P450 2C19 (Homo sapiens, UniProt P33261); test: Inhibition of CYP2C19 in human liver microsomes; assay type: ADME, Microsome
[9] = Cmax in monkey at 3 mg/kg, po; assay type: ADME, organism-based, Macaca mulatta; parameters: dose 3 mg/kg, route oral; conditions: rhesus monkey, in vivo
[10] = biological target: Cytochrome P450 3A4 (Homo sapiens, UniProt P08684); test: Inhibition of CYP3A4 in human liver microsomes; assay type: ADME, Microsome
[11] = Protein binding in dog plasma; assay type: ADME, cell-free, Canis lupus familiaris; conditions: read-out: PPB (converted)
[12] = biological target: 5-hydroxytryptamine receptor 2A (Homo sapiens, UniProt P28223); test: biochemical
Description: Displacement of [125I]DOI from human recombinant 5HT2A receptor expressed in HEK293 cells after 1 hr by scintillation counting

[13] = tested on: Rattus norvegicus; test: Effect on behavioral activity in Sprague-Dawley rat assessed as increase in deep sleep at 0.1 mg/kg, po after 1 hr; assay type: functional, organism-based; parameters: dose 0.1 mg/kg
[14] = Total clearance in monkey at 2 mg/kg, iv; assay type: ADME, organism-based, Macaca mulatta; parameters: dose 2 mg/kg, route intravenous; conditions: rhesus monkey, in vivo
[15] = Oral bioavailability in mouse at 3 mg/kg relative to 2 mg/kg, iv dose; assay type: ADME, organism-based; conditions: in vivo
[16] = tested on: Rattus norvegicus; test: Volume of distribution at steady state in Sprague-Dawley rat at 3 mg/kg, po; assay type: ADME, organism-based; parameters: dose 3 mg/kg, route oral; conditions: in vivo
[17] = tested on: Canis familiaris; test: Cardiotoxicity in telemeterized dog assessed as change in ECG parameter at 10 to 30 mg/kg; assay type: toxicity, organism-based, Canis lupus familiaris; parameters: dose 10-30 mg/kg; conditions: in vivo
[18] = Toxicity in rat assessed as maximum tolerated dose; assay type: organism-based; conditions: in vivo
[19] = Total clearance in mouse at 2 mg/kg, iv; assay type: ADME, organism-based; parameters: dose 2 mg/kg, route intravenous; conditions: in vivo
[20] = Half life in dog at 3 mg/kg, po; assay type: ADME, organism-based, Canis lupus familiaris; parameters: dose 3 mg/kg, route oral; conditions: in vivo
[21] = Half life in Sprague-Dawley rat at 3 mg/kg, po; assay type: ADME, organism-based; parameters: dose 3 mg/kg, route oral; conditions: in vivo
[22] = tested on: Rhesus monkey; test: Volume of distribution at steady state in monkey at 3 mg/kg, po; assay type: ADME, organism-based, Macaca mulatta; parameters: dose 3 mg/kg, route oral; conditions: in vivo
[23] = Total clearance in Sprague-Dawley rat at 2 mg/kg, iv; assay type: ADME, organism-based; parameters: dose 2 mg/kg, route intravenous; conditions: in vivo
[24] = biological target: 5-hydroxytryptamine receptor 2A (Canis lupus familiaris, UniProt O46635); test: Binding affinity to dog 5HT2A receptor
[25] = tested on: Rattus norvegicus; test: Cardiotoxicity in telemeterized rat assessed as change in ECG parameter at 10 to 30 mg/kg; assay type: toxicity, organism-based; parameters: dose 10-30 mg/kg; conditions: in vivo
[26] = biological target: 5-hydroxytryptamine receptor 2A (Rattus norvegicus, UniProt P14842); test: Binding affinity to rat 5HT2A receptor
[27] = tested on: Rattus norvegicus; test: Inhibition of DOI-induced hypolocomotion in Sprague-Dawley rat at 0.3 mg/kg, po administered 25 mins before DOI challenge measured after 10 mins; assay type: functional, organism-based; parameters: dose 0.3 mg/kg
[28] = Cmax in dog at 3 mg/kg, po; assay type: ADME, organism-based, Canis lupus familiaris; parameters: dose 3 mg/kg, route oral; conditions: in vivo
[29] = Half life in mouse at 3 mg/kg, po; assay type: ADME, organism-based; parameters: dose 3 mg/kg, route oral; conditions: in vivo
[30] = Toxicity in mouse assessed as maximum tolerated dose; assay type: organism-based; conditions: in vivo
[31] = Drug level in Sprague-Dawley rat plasma at 0.3 mg/kg, po after 0.75 hrs; assay type: ADME, organism-based; parameters: dose 0.3 mg/kg, route oral; conditions: read-out: Drug uptake
[32] = tested on: Canis familiaris; test: Volume of distribution at steady state in dog at 3 mg/kg, po; assay type: ADME, organism-based, Canis lupus familiaris; parameters: dose 3 mg/kg, route oral; conditions: in vivo
[33] = AUClast in mouse at 3 mg/kg, po; assay type: ADME, organism-based; parameters: time 0 - last, dose 3 mg/kg, route oral; conditions: plasma
[34] = biological target: 5-hydroxytryptamine receptor 2A (Macaca mulatta, UniProt P50128); test: Binding affinity to monkey 5HT2A receptor
[35] = tested on: Rattus norvegicus; test: Toxicity in telemeterized rats assessed as effect on hemodynamics at 10 to 30 mg/kg; assay type: organism-based; parameters: dose 10-30 mg/kg; conditions: in vivo
[36] = Oral bioavailability in monkey at 3 mg/kg relative to 2 mg/kg, iv dose; assay type: ADME, organism-based, Macaca mulatta; conditions: rhesus monkey, in vivo
[37] = tested on: Mus musculus; test: Toxicity in mouse assessed as reduction in locomotor activity at 300 mg/kg by rotarod test; assay type: organism-based; parameters: dose 300 mg/kg; conditions: in vivo
[38] = biological target: Voltage-gated inwardly rectifying potassium channel KCNH2 (Homo sapiens, UniProt Q12809)
Description: Inhibition of human ERG by patch clamp electrophysiology assay

[39] = tested on: Rattus norvegicus; test: Effect on behavioral activity in Sprague-Dawley rat assessed as increase in deep sleep at 0.1 mg/kg, po after 3 to 4 hrs; assay type: functional, organism-based; parameters: dose 0.1 mg/kg
[40] = Total clearance in dog at 2 mg/kg, iv; assay type: ADME, organism-based, Canis lupus familiaris; parameters: dose 2 mg/kg, route intravenous; conditions: in vivo
[41] = biological target: Cytochrome P450 2D6 (Homo sapiens, UniProt P10635); test: Inhibition of CYP2D6 in human liver microsomes; assay type: ADME, Microsome
[42] = AUClast in monkey at 3 mg/kg, po; assay type: ADME, organism-based, Macaca mulatta; parameters: time 0 - last, dose 3 mg/kg, route oral; conditions: rhesus monkey, plasma
[43] = Oral bioavailability in dog at 3 mg/kg relative to 2 mg/kg, iv dose; assay type: ADME, organism-based, Canis lupus familiaris; conditions: in vivo
[44] = AUClast in dog at 3 mg/kg, po; assay type: ADME, organism-based, Canis lupus familiaris; parameters: dose 3 mg/kg, route oral, time 0 - last; conditions: plasma
[45] = Ratio of drug level in brain to plasma in Sprague-Dawley rat at 0.3 mg/kg, po after 0.75 hrs; assay type: ADME, organism-based; parameters: dose 0.3 mg/kg, route oral
[46] = Cmax in mouse at 3 mg/kg, po; assay type: ADME, organism-based; parameters: dose 3 mg/kg, route oral; conditions: in vivo
[47] = Half life in monkey at 3 mg/kg, po; assay type: ADME, organism-based, Macaca mulatta; parameters: dose 3 mg/kg, route oral; conditions: rhesus monkey, in vivo
[48] = biological target: Cytochrome P450 2C9 (Homo sapiens, UniProt P11712); test: Inhibition of CYP2C9 in human liver microsomes; assay type: ADME, Microsome
[49] = Ratio of drug level in brain to plasma in Sprague-Dawley rat at 3 mg/kg, po after 0.75 hrs; assay type: ADME, organism-based; parameters: dose 3 mg/kg, route oral
[50] = AUClast in Sprague-Dawley rat at 10 mg/kg, po; assay type: ADME, organism-based; parameters: time 0 - last, dose 10 mg/kg, route oral; conditions: plasma
[51] = tested on: Rattus norvegicus; test: Toxicity in rat assessed as reduction in locomotor activity at 300 mg/kg by rotarod test; assay type: organism-based; parameters: dose 300 mg/kg; conditions: in vivo
[52] = Protein binding in rat plasma; assay type: ADME, cell-free; conditions: read-out: PPB (converted)
[53] = Drug level in Sprague-Dawley rat brain at 0.3 mg/kg, po after 0.75 hrs; assay type: ADME, organism-based; parameters: dose 0.3 mg/kg, route oral; conditions: read-out: Drug uptake

5-hydroxytryptamine receptor 2A (Macaca mulatta, UniProt P50128), sequence (P50128 whole entry): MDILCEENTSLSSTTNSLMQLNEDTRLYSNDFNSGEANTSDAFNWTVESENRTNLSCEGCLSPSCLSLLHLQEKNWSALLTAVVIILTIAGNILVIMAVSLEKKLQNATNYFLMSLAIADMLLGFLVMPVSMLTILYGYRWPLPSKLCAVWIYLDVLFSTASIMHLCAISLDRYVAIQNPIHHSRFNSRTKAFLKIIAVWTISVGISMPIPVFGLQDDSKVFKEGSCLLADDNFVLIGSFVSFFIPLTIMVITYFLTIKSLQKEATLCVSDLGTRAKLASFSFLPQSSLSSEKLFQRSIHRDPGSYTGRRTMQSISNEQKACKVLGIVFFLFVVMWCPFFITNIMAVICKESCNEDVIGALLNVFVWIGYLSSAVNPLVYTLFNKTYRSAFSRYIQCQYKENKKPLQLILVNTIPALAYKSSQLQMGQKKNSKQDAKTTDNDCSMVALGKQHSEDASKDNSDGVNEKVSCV
5-hydroxytryptamine receptor 2A (Homo sapiens, UniProt P28223), sequence (P28223 whole entry): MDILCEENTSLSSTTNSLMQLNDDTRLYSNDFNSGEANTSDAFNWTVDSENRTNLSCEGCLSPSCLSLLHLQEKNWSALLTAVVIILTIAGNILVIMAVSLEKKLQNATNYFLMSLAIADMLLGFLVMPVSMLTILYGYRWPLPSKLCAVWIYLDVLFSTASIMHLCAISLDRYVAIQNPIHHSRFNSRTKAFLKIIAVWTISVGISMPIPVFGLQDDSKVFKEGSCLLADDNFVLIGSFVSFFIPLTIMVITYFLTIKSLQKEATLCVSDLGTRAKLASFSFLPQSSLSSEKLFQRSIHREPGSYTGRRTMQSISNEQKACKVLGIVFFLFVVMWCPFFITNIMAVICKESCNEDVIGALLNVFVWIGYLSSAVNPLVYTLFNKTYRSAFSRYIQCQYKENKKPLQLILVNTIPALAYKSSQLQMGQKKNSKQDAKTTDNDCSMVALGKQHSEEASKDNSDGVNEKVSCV
Cytochrome P450 2C19, sequence (P33261 whole entry): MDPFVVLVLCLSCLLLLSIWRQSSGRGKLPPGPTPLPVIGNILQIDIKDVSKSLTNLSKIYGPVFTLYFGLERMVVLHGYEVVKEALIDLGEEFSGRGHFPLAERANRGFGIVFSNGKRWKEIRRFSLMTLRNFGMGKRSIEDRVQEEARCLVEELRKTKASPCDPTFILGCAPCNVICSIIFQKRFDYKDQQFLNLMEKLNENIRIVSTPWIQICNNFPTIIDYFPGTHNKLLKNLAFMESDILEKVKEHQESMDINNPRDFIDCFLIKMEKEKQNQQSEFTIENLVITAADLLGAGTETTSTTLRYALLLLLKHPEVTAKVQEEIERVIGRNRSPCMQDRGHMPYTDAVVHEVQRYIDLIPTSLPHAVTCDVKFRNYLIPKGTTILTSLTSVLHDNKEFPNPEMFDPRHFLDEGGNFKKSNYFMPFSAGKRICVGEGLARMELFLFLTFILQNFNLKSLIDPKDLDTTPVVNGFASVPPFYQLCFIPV
Cytochrome P450 2C9, sequence (P11712 whole entry): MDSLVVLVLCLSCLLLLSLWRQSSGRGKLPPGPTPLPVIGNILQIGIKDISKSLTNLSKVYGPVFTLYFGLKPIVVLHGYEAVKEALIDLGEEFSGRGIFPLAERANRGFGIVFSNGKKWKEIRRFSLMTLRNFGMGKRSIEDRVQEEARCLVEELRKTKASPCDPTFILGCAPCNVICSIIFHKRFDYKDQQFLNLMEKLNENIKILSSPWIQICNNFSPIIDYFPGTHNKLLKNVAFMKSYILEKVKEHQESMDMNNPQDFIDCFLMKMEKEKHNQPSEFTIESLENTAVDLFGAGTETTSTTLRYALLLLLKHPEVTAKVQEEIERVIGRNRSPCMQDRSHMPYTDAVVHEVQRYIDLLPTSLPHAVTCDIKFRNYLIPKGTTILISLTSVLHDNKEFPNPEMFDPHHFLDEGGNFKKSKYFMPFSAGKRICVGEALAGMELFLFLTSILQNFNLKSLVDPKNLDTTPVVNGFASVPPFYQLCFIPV
5-hydroxytryptamine receptor 2A (Canis lupus familiaris, UniProt O46635), sequence (O46635 whole entry): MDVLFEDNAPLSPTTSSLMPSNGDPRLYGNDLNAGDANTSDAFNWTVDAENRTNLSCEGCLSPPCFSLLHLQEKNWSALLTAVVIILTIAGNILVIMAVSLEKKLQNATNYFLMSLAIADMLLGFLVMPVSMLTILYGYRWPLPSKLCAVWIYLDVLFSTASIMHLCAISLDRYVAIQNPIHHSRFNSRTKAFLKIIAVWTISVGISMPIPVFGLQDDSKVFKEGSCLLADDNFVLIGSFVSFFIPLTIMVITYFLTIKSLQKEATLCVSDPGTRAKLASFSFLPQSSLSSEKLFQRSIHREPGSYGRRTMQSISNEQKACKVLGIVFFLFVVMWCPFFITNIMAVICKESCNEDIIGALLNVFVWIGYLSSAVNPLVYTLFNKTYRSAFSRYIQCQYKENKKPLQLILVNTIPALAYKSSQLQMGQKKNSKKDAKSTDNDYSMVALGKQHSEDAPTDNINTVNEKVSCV
5-hydroxytryptamine receptor 2A (Rattus norvegicus, UniProt P14842), sequence (P14842 whole entry): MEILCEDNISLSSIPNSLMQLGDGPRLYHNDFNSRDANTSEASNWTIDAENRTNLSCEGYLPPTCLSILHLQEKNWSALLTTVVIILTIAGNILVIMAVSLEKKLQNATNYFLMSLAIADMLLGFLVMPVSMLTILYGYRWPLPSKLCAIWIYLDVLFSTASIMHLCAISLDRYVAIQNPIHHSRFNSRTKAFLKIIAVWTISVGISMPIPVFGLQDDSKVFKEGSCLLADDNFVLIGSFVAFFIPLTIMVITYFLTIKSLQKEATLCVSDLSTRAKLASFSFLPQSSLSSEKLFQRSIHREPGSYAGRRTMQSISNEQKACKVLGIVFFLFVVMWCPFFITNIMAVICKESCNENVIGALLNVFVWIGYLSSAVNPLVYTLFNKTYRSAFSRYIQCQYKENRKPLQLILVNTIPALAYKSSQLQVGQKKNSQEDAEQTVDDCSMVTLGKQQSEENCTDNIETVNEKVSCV
Cytochrome P450 2D6, sequence (P10635 whole entry): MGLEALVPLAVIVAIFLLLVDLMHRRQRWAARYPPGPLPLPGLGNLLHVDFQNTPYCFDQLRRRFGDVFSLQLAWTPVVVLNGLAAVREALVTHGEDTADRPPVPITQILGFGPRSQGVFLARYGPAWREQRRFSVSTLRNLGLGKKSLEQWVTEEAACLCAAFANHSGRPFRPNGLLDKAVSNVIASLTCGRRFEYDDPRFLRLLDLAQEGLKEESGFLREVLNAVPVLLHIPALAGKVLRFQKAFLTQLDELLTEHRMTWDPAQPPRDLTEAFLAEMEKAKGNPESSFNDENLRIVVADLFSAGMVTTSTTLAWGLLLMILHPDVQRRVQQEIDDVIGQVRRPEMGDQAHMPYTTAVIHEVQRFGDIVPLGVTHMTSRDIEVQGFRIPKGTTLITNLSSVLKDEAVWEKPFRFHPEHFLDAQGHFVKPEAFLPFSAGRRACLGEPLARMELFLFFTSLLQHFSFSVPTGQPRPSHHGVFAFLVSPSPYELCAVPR
Cytochrome P450 3A4, sequence (P08684 whole entry): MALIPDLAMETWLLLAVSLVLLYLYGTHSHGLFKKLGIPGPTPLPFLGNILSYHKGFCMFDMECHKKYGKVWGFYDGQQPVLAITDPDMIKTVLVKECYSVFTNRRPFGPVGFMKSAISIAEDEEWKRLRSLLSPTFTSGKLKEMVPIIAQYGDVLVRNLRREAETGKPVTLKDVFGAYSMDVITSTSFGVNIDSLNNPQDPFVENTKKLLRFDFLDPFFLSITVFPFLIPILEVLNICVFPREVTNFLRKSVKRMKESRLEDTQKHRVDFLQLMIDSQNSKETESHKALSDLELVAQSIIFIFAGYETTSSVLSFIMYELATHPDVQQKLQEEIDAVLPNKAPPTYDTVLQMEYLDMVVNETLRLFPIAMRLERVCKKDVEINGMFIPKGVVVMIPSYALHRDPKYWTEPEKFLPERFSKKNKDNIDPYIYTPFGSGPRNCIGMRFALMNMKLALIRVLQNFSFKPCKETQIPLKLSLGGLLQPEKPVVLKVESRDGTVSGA
Voltage-gated inwardly rectifying potassium channel KCNH2, sequence (Q12809 whole entry): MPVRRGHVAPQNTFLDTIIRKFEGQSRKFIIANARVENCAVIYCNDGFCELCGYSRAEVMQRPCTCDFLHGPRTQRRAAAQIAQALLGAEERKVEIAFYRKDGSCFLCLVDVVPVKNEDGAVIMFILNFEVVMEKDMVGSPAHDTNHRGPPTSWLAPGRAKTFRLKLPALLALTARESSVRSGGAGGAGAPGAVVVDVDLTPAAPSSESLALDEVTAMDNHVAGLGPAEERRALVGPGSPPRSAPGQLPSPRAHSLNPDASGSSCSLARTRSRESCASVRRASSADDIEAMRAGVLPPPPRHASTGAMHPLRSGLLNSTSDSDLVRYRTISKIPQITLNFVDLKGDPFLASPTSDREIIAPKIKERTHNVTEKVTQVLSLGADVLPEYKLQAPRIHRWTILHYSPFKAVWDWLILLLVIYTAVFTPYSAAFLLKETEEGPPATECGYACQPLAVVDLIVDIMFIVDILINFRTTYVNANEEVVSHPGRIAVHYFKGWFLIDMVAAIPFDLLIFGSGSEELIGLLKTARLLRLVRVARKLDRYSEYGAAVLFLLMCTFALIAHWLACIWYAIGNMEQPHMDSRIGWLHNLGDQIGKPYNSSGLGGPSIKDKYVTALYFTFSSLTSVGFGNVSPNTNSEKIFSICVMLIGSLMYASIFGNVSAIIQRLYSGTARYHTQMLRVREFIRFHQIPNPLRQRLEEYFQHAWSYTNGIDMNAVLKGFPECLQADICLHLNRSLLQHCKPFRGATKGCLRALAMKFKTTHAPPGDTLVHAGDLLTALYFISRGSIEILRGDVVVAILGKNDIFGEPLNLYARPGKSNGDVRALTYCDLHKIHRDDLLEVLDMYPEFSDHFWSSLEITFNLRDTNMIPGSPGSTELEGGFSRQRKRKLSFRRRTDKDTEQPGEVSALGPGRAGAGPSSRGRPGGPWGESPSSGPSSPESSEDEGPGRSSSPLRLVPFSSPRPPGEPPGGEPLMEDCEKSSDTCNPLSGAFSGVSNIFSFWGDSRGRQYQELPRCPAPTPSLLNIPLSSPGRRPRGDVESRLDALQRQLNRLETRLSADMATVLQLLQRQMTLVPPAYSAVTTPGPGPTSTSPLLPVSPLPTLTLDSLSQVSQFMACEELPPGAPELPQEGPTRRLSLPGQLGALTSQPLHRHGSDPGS

SMILES: Cn1cc(Cl)c(C(=O)N2CCN(CC(=O)c3ccc(F)cc3)CC2)n1
- Vdss [1]: 1.7 L/kg
- Activity [2]: Dose-dependent effect
- bioavailability [3]: 67%
- Cmax [4]: 1040 ng/mL
- Activity [5]: Non-toxic
- inhibition (INH) [6]: Not Active
- Ki [7]: 1410 nM
- inhibition (INH) [8]: Not Active
- Cmax [9]: 600 ng/mL
- inhibition (INH) [10]: Not Active
- fraction unbound [11]: 0.39
- Ki [12]: 3.7 nM
- Activity [13]: Active
- clearance [14]: 15 mL/min/kg
- bioavailability [15]: 87%
- Vdss [16]: 1.7 L/kg
- Activity [17]: Non-toxic
- MTD [18]: 300 mg/kg
- clearance [19]: 93.3 mL/min/kg
- half-life [20]: 5.2 h
- half-life [21]: 2 h
- Vdss [22]: 0.4 L/kg
- clearance [23]: 93.3 mL/min/kg
- Ki [24]: 2.7 nM
- Activity [25]: Non-toxic
- Ki [26]: 2.4 nM
- inhibition [27]: Active
- Cmax [28]: 1260 ng/mL
- half-life [29]: 0.5 h
- MTD [30]: 300 mg/kg
- concentration at 0.75 h [31]: 19.6 ng/mL
- Vdss [32]: 1.9 L/kg
- AUC(0-t) [33]: 459 ng·h/mL
- Ki [34]: 1.7 nM
- Activity [35]: Non-toxic
- bioavailability [36]: 26%
- Activity [37]: Toxic
- IC50 [38]: 30000 nM
- Activity [39]: Active
- clearance [40]: 15 mL/min/kg
- inhibition (INH) [41]: Not Active
- AUC(0-t) [42]: 872 ng·h/mL
- bioavailability [43]: 94%
- AUC(0-t) [44]: 2940 ng·h/mL
- Kp at 0.75 h [45]: 1.18
- Cmax [46]: 718 ng/mL
- half-life [47]: 0.6 h
- inhibition (INH) [48]: Not Active
- Kp at 0.75 h [49]: 1.18
- AUC(0-t) [50]: 1180 ng·h/mL
- Activity [51]: Toxic
- fraction unbound [52]: 0.49
- concentration at 0.75 h [53]: 23.3 ng/mL
